# Ends that are not written are not given here.
# Assay: Vx006 solubilisation in solvents for injection
# Assay type: physicochemical
# Settings: in water for injection
# Experimental: For vaccinating a patient, 1 ml of solvent is added on the lyocake to resuspend the peptide, 0.7 ml of peptide in solution is then loaded in a silicone free syringe and 0.7 ml of MONTANIDE ISA51VG in a second syringe. Both syringes are then connected to the I-connector for the emulsification protocol.
# According to SEPPIC recommendations, to the fact that the emulsion is performed for human administration (preventing the use of solvents as DMSO etc.), results presented in Example 1 above and solubility prediction, Vx006 was initially diluted in saline buffer. Two saline solvents were tested, NaCl 0.9% and PBS. […] Moreover, the addition of several solvents developed by Seppic and compatible with injection in humans and emulsion with MONTANIDE were tested during the Vx006 manufacturing development.
# The vial can be gently agitated to accelerate the dissolution, if necessary. The dissolution can also be performed at cold temperature (0-10° C.).
sequence,measurement,value
YLQVNSLQTVYLEYRQVPVYLEEITGYL [Vx006],Solubility,perfectly soluble
same,pH of the solubilised peptide,around 7
